In patent US20200107568A1, “METHOD FOR REDUCING LINGERING SWEET AFTERTASTE” (SUNTORY HOLDINGS LIMITED, priority 2017, published 2020):

Molecular target: T1, taste receptor (Homo sapiens, UniProt Q7RTX0+Q8TE23)
T1 construct: endogenous in cells; host or cells: taste cells in the mouths of human panelists (in vivo tasting test)
T1 sequence (Q8TE23 20-839): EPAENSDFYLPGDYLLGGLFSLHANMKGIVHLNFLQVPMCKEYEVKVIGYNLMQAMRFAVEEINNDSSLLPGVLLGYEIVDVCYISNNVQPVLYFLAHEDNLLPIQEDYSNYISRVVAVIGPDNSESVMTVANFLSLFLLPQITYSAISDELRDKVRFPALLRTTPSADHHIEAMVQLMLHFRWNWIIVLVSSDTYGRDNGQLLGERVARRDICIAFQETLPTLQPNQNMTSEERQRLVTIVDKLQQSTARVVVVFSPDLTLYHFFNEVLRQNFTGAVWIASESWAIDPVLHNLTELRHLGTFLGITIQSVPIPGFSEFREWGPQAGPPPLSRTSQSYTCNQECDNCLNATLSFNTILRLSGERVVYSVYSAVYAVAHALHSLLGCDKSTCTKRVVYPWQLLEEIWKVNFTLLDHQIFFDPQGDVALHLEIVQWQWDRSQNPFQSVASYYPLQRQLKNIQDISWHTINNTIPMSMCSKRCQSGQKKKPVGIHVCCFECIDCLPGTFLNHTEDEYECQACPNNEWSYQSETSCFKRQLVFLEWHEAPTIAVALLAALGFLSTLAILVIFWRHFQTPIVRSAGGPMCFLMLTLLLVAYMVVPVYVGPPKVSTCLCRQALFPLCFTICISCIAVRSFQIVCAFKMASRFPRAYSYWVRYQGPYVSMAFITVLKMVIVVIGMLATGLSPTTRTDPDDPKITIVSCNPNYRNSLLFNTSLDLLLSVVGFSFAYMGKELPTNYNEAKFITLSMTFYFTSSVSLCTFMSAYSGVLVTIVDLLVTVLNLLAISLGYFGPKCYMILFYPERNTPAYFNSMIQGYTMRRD
T1 sequence (Q7RTX0 21-852): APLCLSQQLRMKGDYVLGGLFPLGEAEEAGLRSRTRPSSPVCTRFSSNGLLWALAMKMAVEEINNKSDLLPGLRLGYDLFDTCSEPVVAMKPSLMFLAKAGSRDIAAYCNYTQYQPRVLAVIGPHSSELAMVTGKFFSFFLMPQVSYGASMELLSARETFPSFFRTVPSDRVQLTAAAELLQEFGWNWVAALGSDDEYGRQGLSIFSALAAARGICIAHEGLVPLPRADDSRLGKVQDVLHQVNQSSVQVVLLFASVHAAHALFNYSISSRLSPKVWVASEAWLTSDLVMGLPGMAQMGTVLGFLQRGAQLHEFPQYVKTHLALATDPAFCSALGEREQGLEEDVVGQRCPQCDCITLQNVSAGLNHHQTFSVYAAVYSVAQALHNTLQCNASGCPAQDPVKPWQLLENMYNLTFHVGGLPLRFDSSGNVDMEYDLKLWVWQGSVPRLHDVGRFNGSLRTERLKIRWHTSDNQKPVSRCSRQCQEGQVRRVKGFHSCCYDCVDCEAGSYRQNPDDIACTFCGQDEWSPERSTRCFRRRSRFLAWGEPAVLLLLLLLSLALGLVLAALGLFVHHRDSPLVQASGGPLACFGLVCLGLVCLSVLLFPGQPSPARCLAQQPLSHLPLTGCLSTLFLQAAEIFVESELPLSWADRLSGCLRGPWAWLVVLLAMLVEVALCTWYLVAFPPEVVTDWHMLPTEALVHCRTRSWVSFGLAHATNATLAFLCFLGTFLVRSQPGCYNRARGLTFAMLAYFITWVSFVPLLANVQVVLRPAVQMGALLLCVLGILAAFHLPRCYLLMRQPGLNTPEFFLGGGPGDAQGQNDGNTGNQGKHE
Assay: Evaluation of sweet lingering by sensory panel, VAS sweetness intensity rating
Format: in vivo
Settings: with respect to rebaudioside D (reference solution α1, 593 ppm); blend 1:1; N=4; found/theoretical index minus 1
Experimental: (1) A reference solution α (a beverage containing only a high-intensity sweetener as a sweetener), a reference solution β (a beverage containing another sweetener and having the same sweetness intensity as the reference solution α), and a sample solution γ (a beverage composed of a mixture of the reference solutions α and β at a predetermined ratio as a sample solution) are prepared in individual cups. (2) The mouth is rinsed thoroughly with water and emptied. This rinsing process is repeated four times. (3) A defined amount (10 ml) of the reference solution α, or β, or the sample solution γ is put in the mouth in one breath, and spit out after 5 sec. […]
A sweet lingering was measured by the above-described method of with respect to each of 3 solutions of a reference solution α, a reference solution β, and a sample solution γ composed thereof, which were adjusted to the same sweetness intensity. The order of the measurements was determined randomly for each evaluator. Next, the theoretical value of the sweet lingering of a sample solution γ is determined from the blend ratio (A:B) of the reference solution α to the reference solution β. […]
Each panel evaluated the respective sweet lingering of the reference solutions α1, and β1, and the sample solution γ1 by the above-described method. […]

| Compound | Effect of reducing a sweet lingering [%] |
| --- | --- |
| O=C(CO)[C@@H](O)[C@H](O)[C@H](O)CO [fructose] | 7 |
| thaumatin | 43 |
